According to patent US10385022B2, “3-amino-pyridines as GPBAR1 agonists” (HOFFMANN-LA ROCHE INC., priority 2011, dated 2019):

molecular target: human GPBAR1 receptor (Homo sapiens (Human), UniProt Q8TDU6); assay: functional cAMP assay in CHO-dhfr(minus) cells expressing human GPBAR1 receptors; type: cell-based; settings: CHO-dhfr(minus) cells expressing human GPBAR1, 30 min at 30° C.
Summary of the method: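 CHO-dhfr- cells were transfected with human GPBAR1, and a clone was chosen by cAMP response to lithocholic acid. EC50 values come from the cAMP read-out; specificity was checked in non-transfected CHO cells.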

human GPBAR1 receptor, sequence (Q8TDU6 whole entry): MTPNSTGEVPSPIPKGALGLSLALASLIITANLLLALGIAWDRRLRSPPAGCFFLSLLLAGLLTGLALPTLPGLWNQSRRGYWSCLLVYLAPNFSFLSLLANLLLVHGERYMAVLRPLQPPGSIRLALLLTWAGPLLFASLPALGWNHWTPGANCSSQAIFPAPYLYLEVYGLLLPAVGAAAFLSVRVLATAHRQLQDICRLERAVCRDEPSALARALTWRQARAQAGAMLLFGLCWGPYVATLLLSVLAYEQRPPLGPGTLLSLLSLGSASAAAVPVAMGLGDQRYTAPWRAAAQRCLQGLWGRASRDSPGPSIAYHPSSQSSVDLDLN

Compared with CN(C(=O)c1cc(C(F)(F)F)cc(C(F)(F)F)c1)c1cnccc1C1=CCOCC1 [Example 166, N-[4-(3,6-Dihydro-2H-pyran-4-yl)-pyridin-3-yl]-N-methyl-3,5-bis-trifluoromethyl-benzamide], CN(C(=O)c1cc(C(F)(F)F)cc(C(F)(F)F)c1)c1cnccc1-c1ccccc1Cl [Example 78, N-[4-(2-Chloro-phenyl)-pyridin-3-yl]-N-methyl-3,5-bis-trifluoromethyl-benzamide] is 85-fold lower in EC50: 1780 nM for the first, 21 nM for the second. The second is the more potent here.

Compared with CN(C(=O)c1cc(C(F)(F)F)cc(C(F)(F)F)c1)c1cnccc1-c1cccc(Cl)c1F [Example 111, N-[4-(3-Chloro-2-fluoro-phenyl)-pyridin-3-yl]-N-methyl-3,5-bis-trifluoromethyl-benzamide], CN(C(=O)c1cc(C(F)(F)F)cc(C(F)(F)F)c1)c1cnccc1-c1ccccc1F [Example 25, N-[4-(2-Fluoro-phenyl)-pyridin-3-yl]-N-methyl-3,5-bis-trifluoromethyl-benzamide] is 18-fold lower in EC50: 256 nM for the first, 14 nM for the second.

Going from COc1ncccc1-c1ccncc1N(CCS(C)(=O)=O)C(=O)c1cc(C(F)(F)F)nc(C(F)(F)F)c1 [Example 160, N-(2-Methanesulfonyl-ethyl)-N-(2-methoxy-[3,4′]bipyridinyl-3′-yl)-2,6-bis-trifluoromethyl-isonicotinamide] to COc1ncccc1-c1ccncc1N(CC(F)F)C(=O)c1cc(C(F)(F)F)nc(C(F)(F)F)c1 [Example 156, N-(2,2-Difluoro-ethyl)-N-(2-methoxy-[3,4′]bipyridinyl-3′-yl)-2,6-bis-trifluoromethyl-isonicotinamide], the EC50 falls from 281 nM to 36 nM (7.8-fold). The second is the more potent here.

Going from COc1cc(F)ccc1-c1ccncc1N(Cc1nccn1C)C(=O)c1cc(C(F)(F)F)cc(S(C)(=O)=O)c1 [Example 250, N-[4-(4-Fluoro-2-methoxy-phenyl)-pyridin-3-yl]-3-methanesulfonyl-N-(1-methyl-1H-imidazol-2-ylmethyl)-5-trifluoromethyl-benzamide] to COc1cc(F)ccc1-c1ccncc1N(C)C(=O)c1cc(C(F)(F)F)cc(S(=O)(=O)CCN)c1 [Example 241, 3-(2-Amino-ethanesulfonyl)-N-[4-(4-fluoro-2-methoxy-phenyl)-pyridin-3-yl]-N-methyl-5-trifluoromethyl-benzamide], the EC50 falls from 2960 nM to 105 nM (28-fold). The second is the more potent here.

Compared with COc1cc(F)ccc1-c1ccncc1N(CCS(C)(=O)=O)C(=O)c1cc(C(F)(F)F)cc(C(F)(F)F)c1 [Example 192, N-[4-(4-Fluoro-2-methoxy-phenyl)-pyridin-3-yl]-N-(2-methanesulfonyl-ethyl)-3,5-bis-tri fluoro methyl-benzamide], COc1cc(F)ccc1-c1ccncc1N(CC(N)=O)C(=O)c1cc(C(F)(F)F)nc(C(F)(F)F)c1 [Example 177, N-Carbamoylmethyl-N-[4-(4-fluoro-2-methoxy-phenyl)-pyridin-3-yl]-2,6-bis-trifluoromethyl-isonicotinamide] is 2.9-fold lower in EC50: 105 nM for the first, 36 nM for the second.

Going from CS(=O)(=O)c1cc(C(=O)N(CC(F)F)c2cnccc2-c2ccccc2F)cc(C(F)(F)F)c1 [Example 215, N-(2,2-Difluoro-ethyl)-N-[4-(2-fluoro-phenyl)-pyridin-3-yl]-3-methanesulfonyl-5-trifluoromethyl-benzamide] to CS(=O)(=O)c1cc(C(=O)N(Cc2ncco2)c2cnccc2-c2ccccc2Cl)cc(C(F)(F)F)c1 [Example 294, N-[4-(2-Chloro-phenyl)-pyridin-3-yl]-3-methanesulfonyl-N-oxazol-2-ylmethyl-5-trifluoromethyl-benzamide], the EC50 falls from 216 nM to 42 nM (5.1-fold).

Compared with CN(C(=O)c1cc(C(F)(F)F)cc(C(F)(F)F)c1)c1cnccc1-c1ccc(F)cc1OCc1ccccc1 [Example 43, N-[4-(2-Benzyloxy-4-fluoro-phenyl)-pyridin-3-yl]-N-methyl-3,5-bis-trifluoromethyl-benzamide], Cc1ccccc1-c1ccncc1N(C)C(=O)c1cc(C(F)(F)F)cc(C(F)(F)F)c1 [Example 1, N-Methyl-N-(4-o-tolyl-pyridin-3-yl)-3,5-bis-trifluoromethyl-benzamide] is 93-fold lower in EC50: 2050 nM for the first, 22 nM for the second.

Going from Cc1ccccc1-c1ccncc1N(C)C(=O)c1cc(Cl)nc(C(F)(F)F)c1 [Example 171, 2-Chloro-N-methyl-N-(4-o-tolyl-pyridin-3-yl)-6-trifluoromethyl-isonicotinamide] to CN(C(=O)c1cc(O)cc(C(F)(F)F)c1)c1cnccc1-c1ccccc1Cl [Example 79, N-[4-(2-Chloro-phenyl)-pyridin-3-yl]-3-hydroxy-N-methyl-5-trifluoromethyl-benzamide], the EC50 rises from 56 nM to 1380 nM (25-fold).

First: Cc1cc(Cl)cc(C(=O)N(C)c2cnccc2-c2ccccc2C)n1 [Example 122, 4-Chloro-6-methyl-pyridine-2-carboxylic acid methyl-(4-o-tolyl-pyridin-3-yl)-amide]
Second: Cc1ccccc1-c1ccncc1N(C)C(=O)c1ccc(F)c(Cl)c1 [Example 11, 3-Chloro-4-fluoro-N-methyl-N-(4-o-tolyl-pyridin-3-yl)-benzamide]
The EC50 of the first is 6-fold higher: 2430 nM for the first, 406 nM for the second.

Compared with Cc1ccccc1-c1ccncc1N(C)C(=O)c1cc(F)cc(F)c1 [Example 9, 3,5-Difluoro-N-methyl-N-(4-o-tolyl-pyridin-3-yl)-benzamide], COC(=O)c1cc(C(=O)N(C)c2cnccc2-c2ccccc2Cl)cc(C(F)(F)F)c1 [Example 75, N-[4-(2-Chloro-phenyl)-pyridin-3-yl]-N-methyl-5-trifluoromethyl-isophthalamic acid methyl ester] is 2.7-fold lower in EC50: 1230 nM for the first, 452 nM for the second.

Compared with COc1cc(F)ccc1-c1ccncc1N(C)C(=O)c1cc(Cl)cc(OC(F)(F)F)c1 [Example 227, 3-Chloro-N-[4-(4-fluoro-2-methoxy-phenyl)-pyridin-3-yl]-N-methyl-5-trifluoromethoxy-benzamide], COc1cc(F)ccc1-c1ccncc1N(C)C(=O)c1cc(Br)cc(OC(F)(F)F)c1 [Example 246, 3-Bromo-N-[4-(4-fluoro-2-methoxy-phenyl)-pyridin-3-yl]-N-methyl-5-trifluoromethoxy-benzamide] is 1.8-fold higher in EC50: 93 nM for the first, 168 nM for the second. The first is the more potent here.

Compared with Cc1cc(-c2ccccc2Cl)c(N(CC(F)(F)F)C(=O)c2cc(C(F)(F)F)cc(S(C)(=O)=O)c2)cn1 [Example 300, N-[4-(2-Chloro-phenyl)-6-methyl-pyridin-3-yl]-3-methanesulfonyl-N-(2,2,2-trifluoro-ethyl)-5-trifluoromethyl-benzamide], NC(=O)CN(C(=O)c1cc(C(F)(F)F)cc(C(F)(F)F)c1)c1cnccc1-c1ccccc1Cl [Example 117, N-Carbamoylmethyl-N-[4-(2-chloro-phenyl)-pyridin-3-yl]-3,5-bis-trifluoromethyl-benzamide] is 16-fold lower in EC50: 831 nM for the first, 52 nM for the second.

Going from Cc1ccc(F)c(-c2ccncc2N(C)C(=O)c2cc(C(F)(F)F)cc(C(F)(F)F)c2)c1 [Example 42, N-[4-(2-Fluoro-5-methyl-phenyl)-pyridin-3-yl]-N-methyl-3,5-bis-trifluoromethyl-benzamide] to COc1ccc(F)c(-c2ccncc2N(C)C(=O)c2cc(C(F)(F)F)cc(C(F)(F)F)c2)c1 [Example 63, N-[4-(2-Fluoro-5-methoxy-phenyl)-pyridin-3-yl]-N-methyl-3,5-bis-trifluoromethyl-benzamide], the EC50 falls from 119 nM to 23 nM (5.2-fold). The second is the more potent here.

Compared with Cc1ccccc1-c1cc(Cl)ncc1N(C)C(=O)c1cc(Cl)cc(Cl)c1 [Example 13, 3,5-Dichloro-N-(6-chloro-4-o-tolyl-pyridin-3-yl)-N-methyl-benzamide], Cc1ccccc1-c1ccncc1N(CC#N)C(=O)c1cc(C(F)(F)F)cc(C(F)(F)F)c1 [Example 161, N-Cyanomethyl-N-(4-o-tolyl-pyridin-3-yl)-3,5-bis-trifluoromethyl-benzamide] is 20-fold lower in EC50: 580 nM for the first, 29 nM for the second. The second is the more potent here.

COc1cc(F)ccc1-c1ccncc1N(C)C(=O)c1cc(C(F)(F)F)cc(S(=O)(=O)C2CNC2)c1 [Example 280, 3-(Azctidine-3-sulfonyl)-N-[4-(4-fluoro-2-methoxy-phenyl)-pyridin-3-yl]-N-methyl-5-trifluoromethyl-benzamide] and COc1cc(F)ccc1-c1ccncc1N(C)C(=O)c1cc(SCCNS(N)(=O)=O)cc(C(F)(F)F)c1 [Example 261, N-[4-(4-fluoro-2-methoxyphenyl)pyridin-3-yl]-N-methyl-3-{[2-(sulfamoylamino)ethyl]-sulfanyl}-5-(trifluoromethyl)benzamide] are within 1.5-fold of each other in EC50: 268 nM for the first, 190 nM for the second.

Compared with COc1cc(F)c(Cl)cc1-c1cc(C)ncc1N(C)C(=O)c1cc(C(F)(F)F)cc(S(=O)(=O)CCCCC(=O)O)c1 [Example 316, 5-(3-{[4-(5-Chloro-4-fluoro-2-methoxy-phenyl)-6-methyl-pyridin-3-yl]-methyl-carbamoyl}-5-trifluoromethyl-benzenesulfonyl)-pentanoic acid], COc1cc(F)ccc1-c1ccncc1N(C)C(=O)c1cc(SCCN2CCC2)cc(C(F)(F)F)c1 [Example 259, 3-(2-Azetidin-1-yl-ethylsulfanyl)-N-[4-(4-fluoro-2-methoxy-phenyl)-pyridin-3-yl]-N-methyl-5-trifluoromethyl-benzamide] is 6.9-fold lower in EC50: 926 nM for the first, 134 nM for the second.

Compared with CNC(=O)CN(C(=O)c1cc(C(F)(F)F)cc(C(F)(F)F)c1)c1cnccc1-c1ccccc1Cl [Example 102, N-[4-(2-Chloro-phenyl)-pyridin-3-yl]-N-methylcarbamoylmethyl-3,5-bis-trifluoromethyl-benzamide], COC(=O)CN(C(=O)c1cc(C(F)(F)F)nc(C(F)(F)F)c1)c1cnccc1-c1ccc(F)cc1OC [Example 176, {(2,6-Bis-trifluoromethyl-pyridine-4-carbonyl)-[4-(4-fluoro-2-methoxy-phenyl)-pyridin-3-yl]-amino}-acetic acid methyl ester] is 10-fold lower in EC50: 144 nM for the first, 14 nM for the second.

Work on COc1cc(F)ccc1-c1ccncc1N(C)C(=O)c1cc(C2CN(C(=O)OC(C)(C)C)C2)cc(C(F)(F)F)c1 [Example 245, 3-(3-{[4-(4-Fluoro-2-methoxy-phenyl)-pyridin-3-yl]-methyl-carbamoyl}-5-trifluoromethyl-phenyl)-azetidine-1-carboxylic acid tert-butyl ester] yielded an EC50 of 933 nM.
